Results from ChEMBL document CHEMBL2034913, “A variant peptide of buffalo colostrum β-lactoglobulin inhibits angiotensin I-converting enzyme activity” (Eur J Med Chem, 2012).
Peptide text beside a SMILES is read from it.

What was measured:
[1] = biological target: T1, Angiotensin-converting enzyme (Rattus norvegicus, UniProt P47820); experiment: (§1) Inhibition of ACE from rat kidney using hippuryl-histidyl-leucine as substrate after 30 mins by UV/VIS spectrophotometry
T1 sequence (P47820 whole entry): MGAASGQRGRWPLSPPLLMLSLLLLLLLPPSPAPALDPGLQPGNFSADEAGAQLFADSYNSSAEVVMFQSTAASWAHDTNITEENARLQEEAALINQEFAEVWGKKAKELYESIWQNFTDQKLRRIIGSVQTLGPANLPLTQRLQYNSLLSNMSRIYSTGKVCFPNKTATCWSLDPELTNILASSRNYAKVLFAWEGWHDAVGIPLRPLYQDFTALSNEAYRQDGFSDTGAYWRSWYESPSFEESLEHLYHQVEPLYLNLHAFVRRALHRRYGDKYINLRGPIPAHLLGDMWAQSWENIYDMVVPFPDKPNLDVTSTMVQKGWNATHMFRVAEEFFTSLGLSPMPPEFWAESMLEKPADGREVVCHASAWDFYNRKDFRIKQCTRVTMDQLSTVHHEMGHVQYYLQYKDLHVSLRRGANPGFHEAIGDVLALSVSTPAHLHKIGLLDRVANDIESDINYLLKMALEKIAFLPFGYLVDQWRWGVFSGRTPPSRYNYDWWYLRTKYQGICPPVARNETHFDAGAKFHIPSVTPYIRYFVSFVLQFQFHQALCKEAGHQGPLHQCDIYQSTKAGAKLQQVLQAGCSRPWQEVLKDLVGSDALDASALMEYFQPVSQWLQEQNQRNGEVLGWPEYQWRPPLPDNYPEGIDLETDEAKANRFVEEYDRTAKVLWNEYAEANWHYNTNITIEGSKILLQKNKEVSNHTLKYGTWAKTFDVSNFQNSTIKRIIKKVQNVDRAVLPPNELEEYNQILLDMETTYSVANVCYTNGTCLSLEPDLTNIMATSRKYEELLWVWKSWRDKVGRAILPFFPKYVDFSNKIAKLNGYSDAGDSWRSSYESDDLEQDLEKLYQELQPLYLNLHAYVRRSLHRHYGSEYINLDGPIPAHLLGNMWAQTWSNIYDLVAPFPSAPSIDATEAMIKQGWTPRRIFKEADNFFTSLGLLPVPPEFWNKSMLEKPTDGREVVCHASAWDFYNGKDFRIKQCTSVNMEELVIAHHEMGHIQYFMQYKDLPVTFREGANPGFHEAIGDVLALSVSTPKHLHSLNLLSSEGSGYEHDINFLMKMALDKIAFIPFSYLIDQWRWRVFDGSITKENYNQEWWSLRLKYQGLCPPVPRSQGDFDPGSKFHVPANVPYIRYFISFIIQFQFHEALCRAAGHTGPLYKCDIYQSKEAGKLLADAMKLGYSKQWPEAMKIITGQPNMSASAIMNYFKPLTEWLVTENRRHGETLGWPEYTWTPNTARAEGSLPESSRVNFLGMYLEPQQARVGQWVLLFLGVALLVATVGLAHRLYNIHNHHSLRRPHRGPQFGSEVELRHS

[2] = biological target: T2, Angiotensin-converting enzyme (Rattus norvegicus) (UniProt P47820); experiment: as §1
T2 sequence (whole entry): T1 sequence (P47820 whole entry)

- IC50 [1]: 498 µM
- inhibition [2]: Dose-dependent effect
SMILES: CC[C@H](C)[C@H](N)C(=O)N[C@H](C(=O)N[C@@H](C)C(=O)N[C@@H](CCSC)C(=O)N[C@@H](CCCCN)C(=O)O)[C@@H](C)CC (H-IIAMK-OH)
